pEC50, pIC50: −log10 of the molar value.
Tests used:
PRMT5/MEP50 complex = PRMT5/MEP50 complex (Homo sapiens, UniProt O14744); experiment: Inhibition of recombinant human fetal brain FLAG-tagged PRMT5/full length human testis 6His-tagged MEP50 expressed in baculovirus infected insect Sf9 cells using human histone H4 (1 to 15 residues) as substrate preincubated for 30 mins followed by [3H]-SAM addition
[1] = biological target: Protein arginine N-methyltransferase 5 (Homo sapiens, UniProt O14744); experiment: Inhibition of PRMT5 in human Z138 cells assessed as decrease in di-methyl arginine levels after 96 hrs by Western blot method; format: cell-based
[2] = Antiproliferative activity against human Z138 cells assessed as inhibition of cell viability after 5 days by Cell-Titer Glo assay; format: functional, cell-based; details: Z-138, 120 h

Chain of Protein arginine N-methyltransferase 5 (O14744 whole entry): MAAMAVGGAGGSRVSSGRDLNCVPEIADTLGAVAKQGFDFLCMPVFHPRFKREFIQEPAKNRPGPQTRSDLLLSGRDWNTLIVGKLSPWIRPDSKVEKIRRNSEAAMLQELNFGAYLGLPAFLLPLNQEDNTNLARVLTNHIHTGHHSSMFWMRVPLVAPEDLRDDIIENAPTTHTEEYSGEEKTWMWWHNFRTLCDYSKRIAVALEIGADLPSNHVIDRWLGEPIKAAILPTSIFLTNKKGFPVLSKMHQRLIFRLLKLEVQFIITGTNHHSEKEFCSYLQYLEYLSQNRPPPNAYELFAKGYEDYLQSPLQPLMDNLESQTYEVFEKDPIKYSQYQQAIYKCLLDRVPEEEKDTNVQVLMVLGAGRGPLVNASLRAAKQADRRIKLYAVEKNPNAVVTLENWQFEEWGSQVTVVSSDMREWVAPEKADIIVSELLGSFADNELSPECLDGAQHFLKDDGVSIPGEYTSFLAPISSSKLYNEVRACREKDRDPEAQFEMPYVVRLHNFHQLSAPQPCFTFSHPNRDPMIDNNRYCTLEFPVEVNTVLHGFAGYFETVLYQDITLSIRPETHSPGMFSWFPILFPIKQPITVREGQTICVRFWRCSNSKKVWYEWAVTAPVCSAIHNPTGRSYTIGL
Chain of PRMT5/MEP50 complex (O14744 whole entry, the tested form may be a part): as the sequence (O14744 whole entry) above
Chain of PRMT5/MEP50 complex (Q9BQA1 whole entry, further chain, the tested form may be a part): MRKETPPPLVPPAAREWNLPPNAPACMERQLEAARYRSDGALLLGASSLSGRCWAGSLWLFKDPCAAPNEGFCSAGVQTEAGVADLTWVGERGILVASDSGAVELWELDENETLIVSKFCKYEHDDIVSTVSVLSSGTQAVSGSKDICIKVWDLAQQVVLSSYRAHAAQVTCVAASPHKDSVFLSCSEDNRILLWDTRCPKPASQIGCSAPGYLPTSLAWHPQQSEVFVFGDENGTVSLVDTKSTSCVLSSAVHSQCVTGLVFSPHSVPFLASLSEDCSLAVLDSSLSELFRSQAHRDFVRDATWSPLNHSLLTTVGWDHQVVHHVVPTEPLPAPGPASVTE

| pIC50 (PRMT5/MEP50 complex) | pEC50 [1] | SMILES | pEC50 [2] |
| --- | --- | --- | --- |
| 6.00 to 7.00 | 6.00 to 7.00 | CN(CC(O)CN1CCc2ccccc2C1)c1cccc(CNC2CCCC2)c1 (stereo unspecified) | 4.40 to 5.00 |
| > 7.00 | 6.00 to 7.00 | CN1CCC(n2cnc3ccc(-c4ccnc(NCC(O)CN5CCc6ccccc6C5)c4)cc32)CC1 (stereo unspecified) | 5.00 to 6.00 |
| 6.00 to 7.00 | 5.00 to 6.00 | O=C(COc1ccccc1-c1ncc[nH]1)NCC(O)CN1CCc2ccccc2C1 (stereo unspecified) | < 4.70 |
| 6.00 to 7.00 | 5.00 to 6.00 | OC(COc1cccc(-c2cccnc2F)c1)CN1CCc2ccccc2C1 (stereo unspecified) | < 4.70 |
| 6.00 to 7.00 | 6.00 to 7.00 | O=C1CN(c2ccccc2Cl)CCN1CC(O)CN1CCc2ccccc2C1 (stereo unspecified) | 4.30 to 5.00 |
| 6.00 to 7.00 | 5.00 to 6.00 | OC(COc1cccc(-c2ccc3nn[nH]c3c2)c1)CN1CCc2ccccc2C1 (stereo unspecified) | 5.00 to 6.00 |
| 6.00 to 7.00 | 6.00 to 7.00 | N#Cc1ccc(OCC(=O)NCC(O)CN2CCc3ccccc3C2)cc1 (stereo unspecified) | 4.30 to 5.00 |
| 6.00 to 7.00 | 6.00 to 7.00 | CC(=O)Nc1ccc(OCC(=O)NCC(O)CN2CCc3ccccc3C2)cc1 (stereo unspecified) | < 4.70 |
| 6.00 to 7.00 | 5.00 to 6.00 | O=C(NCC(O)CN1CCc2ccccc2C1)c1cccc(C2CCCN2)c1 (stereo unspecified) | < 4.70 |
| 6.00 to 7.00 | 6.00 to 7.00 | O=C(COc1ccccc1F)NCC(O)CN1CCc2ccccc2C1 (stereo unspecified) | 4.30 to 5.00 |
| 5.00 to 6.00 | 5.00 to 6.00 | Cn1cnc(C(=O)Nc2cccc(OCC(O)CN3CCc4ccccc4C3)c2)c1 (stereo unspecified) | < 4.70 |
| > 7.00 | 6.00 to 7.00 | O=C(COc1cccc2c1CCNC2)NCC(O)CN1CCc2ccccc2C1 (stereo unspecified) | 5.00 to 6.00 |
| > 7.00 | 6.00 to 7.00 | O=C(COc1cccc2ccccc12)NCC(O)CN1CCc2ccccc2C1 (stereo unspecified) | 5.00 to 6.00 |
| 6.00 to 7.00 | 5.00 to 6.00 | OC(COc1cccc(-c2ccc3ncn(C4CNC4)c3c2)c1)CN1CCc2ccccc2C1 (stereo unspecified) | 5.00 to 6.00 |
| 6.00 to 7.00 | 6.00 to 7.00 | O=C(Cn1ccc2cnc(-c3cccc(OCC(O)CN4CCc5ccccc5C4)c3)nc21)N1CCOCC1 (stereo unspecified) | 4.40 to 5.00 |
| 6.00 to 7.00 | 6.00 to 7.00 | OC(COc1cccc(-c2ccc3ncn(C4CCOCC4)c3c2)c1)CN1CCc2ccccc2C1 (stereo unspecified) | 5.00 to 6.00 |
| > 7.00 | 6.00 to 7.00 | CN(C)CCOc1ccccc1OCC(=O)NC[C@H](O)CN1CCc2ccccc2C1 | 4.30 to 5.00 |
| > 7.00 | 6.00 to 7.00 | C[C@@H](Oc1cccc2cccnc12)C(=O)NC[C@H](O)CN1Cc2ccccc2C1 | 5.00 to 6.00 |
| 6.00 to 7.00 | 5.00 to 6.00 | OC(COc1cccc(-c2ccccc2)c1)CN1CCc2ccccc2C1 (stereo unspecified) | < 4.70 |
| > 7.00 | 6.00 to 7.00 | COc1ccccc1OCC(=O)NCC(O)CN1CCc2ccccc2C1 (stereo unspecified) | 5.00 to 6.00 |
| 6.00 to 7.00 | 5.00 to 6.00 | CC(Oc1ccccc1S(C)(=O)=O)C(=O)NCC(O)CN1CCc2ccccc2C1 (stereo unspecified) | < 4.70 |
| 5.00 to 6.00 | 5.00 to 6.00 | Cn1ccc(C(=O)Nc2cccc(OCC(O)CN3CCc4ccccc4C3)c2)n1 (stereo unspecified) | < 4.70 |

| pIC50 (PRMT5/MEP50 complex) | pEC50 [1] | SMILES | pEC50 [2] |
| --- | --- | --- | --- |
| 6.00 to 7.00 | 6.00 to 7.00 | Cn1cnc2cc(-c3cc(NCC(O)CN4CCc5ccccc5C4)n[nH]3)ccc21 (stereo unspecified) | 5.00 to 6.00 |
| 6.00 to 7.00 | 6.00 to 7.00 | OC(CNc1cccc(-c2cccc3[nH]cnc23)c1)CN1CCc2ccccc2C1 (stereo unspecified) | 4.40 to 5.00 |
| > 7.00 | > 7.00 | O=C(COc1cccc(CN2CCOCC2)c1)NCC(O)CN1CCc2ccccc2C1 (stereo unspecified) | 5.00 to 6.00 |
| > 7.00 | 6.00 to 7.00 | Cn1cnc2ccc(-c3ccnc(NC[C@H](O)CN4CCc5ccccc5C4)c3)cc21 | 5.00 to 6.00 |
| > 7.00 | 6.00 to 7.00 | OC(COc1ccc(C2CCCNC2)cc1)CN1CCc2ccccc2C1 (stereo unspecified) | 5.00 to 6.00 |
| 6.00 to 7.00 | 6.00 to 7.00 | O=C(NCC(O)CN1CCc2ccccc2C1)c1cccnc1 (stereo unspecified) | 4.30 to 5.00 |
| > 7.00 | 6.00 to 7.00 | O=C(COc1ccccc1OCCN1CCOCC1)NC[C@H](O)CN1CCc2ccccc2C1 | 4.30 to 5.00 |
| > 7.00 | > 7.00 | CN1CCN(C(=O)Cn2ccc3cnc(-c4ccnc(NCC(O)CN5CCc6ccccc6C5)c4)nc32)CC1 (stereo unspecified) | 5.00 to 6.00 |
| 5.00 to 7.00 | 6.00 to 7.00 | C[C@H](Oc1cccc2cccnc12)C(=O)NC[C@@H](O)CN1Cc2ccccc2C1 | < 4.70 |
| 6.00 to 7.00 | 6.00 to 7.00 | Cn1cnc2ccc(-c3cc(NCC(O)CN4CCc5ccccc5C4)ncn3)cc21 (stereo unspecified) | 5.00 to 6.00 |
| > 7.00 | 6.00 to 7.00 | CS(=O)(=O)c1cccc(OCC(=O)NCC(O)CN2CCc3ccccc3C2)c1 (stereo unspecified) | 5.00 to 6.00 |
| > 7.00 | > 7.00 | O=C(COc1cccc2nccnc12)NCC(O)CN1CCc2ccccc2C1 (stereo unspecified) | 5.00 to 6.00 |
| > 7.00 | > 7.00 | O=C(NC[C@H](O)CN1CCc2ccccc2C1)c1ccccc1 | 5.00 to 6.00 |
| > 7.00 | 6.00 to 7.00 | O=C(COc1cccc2c1CCCC2)NCC(O)CN1CCc2ccccc2C1 (stereo unspecified) | 5.00 to 6.00 |
| 6.00 to 7.00 | 6.00 to 7.00 | NC(=O)c1cccc(OCC(=O)NCC(O)CN2CCc3ccccc3C2)c1 (stereo unspecified) | 4.30 to 5.00 |
| 6.00 to 7.00 | 5.00 to 6.00 | Cn1cnc2c1CN(c1cccc(OCC(O)CN3CCc4ccccc4C3)c1)CC2 (stereo unspecified) | < 4.70 |
| > 7.00 | 6.00 to 7.00 | O=C(NCC(O)CN1CCc2ccccc2C1)c1cccc(N2CCNCC2)c1 (stereo unspecified) | 4.30 to 5.00 |
| > 7.00 | 6.00 to 7.00 | CC(Oc1ccccc1)C(=O)NCC(O)CN1CCc2ccccc2C1 (stereo unspecified) | 5.00 to 6.00 |
| 6.00 to 7.00 | 5.00 to 6.00 | CS(=O)(=O)c1cccc(-c2cccc(OCC(O)CN3CCc4ccccc4C3)c2)c1 (stereo unspecified) | < 4.70 |
| > 7.00 | 5.00 to 6.00 | Cc1ncc2ccc(-c3cccc(OCC(O)CN4CCc5ccccc5C4)c3)cn12 (stereo unspecified) | 5.00 to 6.00 |
| > 7.00 | > 7.00 | Cn1ccc2cnc(-c3ccnc(NCC(O)CN4CCc5ccccc5C4)c3)nc21 (stereo unspecified) | 5.00 to 6.00 |
| > 7.00 | 6.00 to 7.00 | CN1CCC(n2cnc3ccc(-c4cccc(OCC(O)CN5CCc6ccccc6C5)c4)cc32)CC1 (stereo unspecified) | 5.00 to 6.00 |

| pIC50 (PRMT5/MEP50 complex) | pEC50 [1] | SMILES | pEC50 [2] |
| --- | --- | --- | --- |
| 6.00 to 7.00 | 6.00 to 7.00 | CC(=O)Nc1cccc(-c2cccc(OCC(O)CN3CCc4ccccc4C3)c2)c1 (stereo unspecified) | < 4.70 |
| > 7.00 | > 7.00 | O=C(COc1ccccc1-c1cc[nH]n1)NC[C@@H](O)CN1CCc2ccccc2C1 | 5.00 to 6.00 |
| > 7.00 | 6.00 to 7.00 | CN1CCN(Cc2cccc(C(=O)NCC(O)CN3CCc4ccccc4C3)c2)CC1 (stereo unspecified) | 5.00 to 6.00 |
| > 7.00 | 6.00 to 7.00 | Cn1cc2ccc(-c3cccc(OCC(O)CN4CCc5ccccc5C4)c3)nc2n1 (stereo unspecified) | 4.40 to 5.00 |
| 6.00 to 7.00 | 6.00 to 7.00 | CC(Oc1cccc(CNC2CCCC2)c1)C(O)CN1CCc2ccccc2C1 (stereo unspecified) | 5.00 to 6.00 |
| > 7.00 | 6.00 to 7.00 | O=C(COc1ccccc1N1CCNCC1)NCC(O)CN1CCc2ccccc2C1 (stereo unspecified) | 5.00 to 6.00 |
| > 7.00 | 6.00 to 7.00 | OC(COc1cccc(-c2ccc3ncn(C4CCNCC4)c3c2)c1)CN1CCc2ccccc2C1 (stereo unspecified) | 5.00 to 6.00 |
| 6.00 to 7.00 | 5.00 to 6.00 | NC(=O)c1cccc(-c2cccc(OCC(O)CN3CCc4ccccc4C3)c2)c1 (stereo unspecified) | < 4.70 |
| 6.00 to 7.00 | 5.00 to 6.00 | O=C(Cn1cnc2ccc(-c3cccc(OCC(O)CN4CCc5ccccc5C4)c3)cc21)N1CCOCC1 (stereo unspecified) | 5.00 to 6.00 |
| > 7.00 | 6.00 to 7.00 | Cn1ncc2ccc(OCC(=O)NCC(O)CN3CCc4ccccc4C3)cc21 (stereo unspecified) | 5.00 to 6.00 |
| > 7.00 | > 7.00 | Cc1c(NC2CCOCC2)cccc1C(=O)NCC(O)CN1CCc2ccccc2C1 (stereo unspecified) | 5.00 to 6.00 |
| > 7.00 | 6.00 to 7.00 | O=C(COc1cccc2cccnc12)NC[C@H](O)CN1Cc2ccccc2C1 | 5.00 to 6.00 |
| > 7.00 | 6.00 to 7.00 | Cn1cnc2ccc(-c3cccc(OC[C@H](O)CN4CCc5ccccc5C4)c3)cc21 | 5.00 to 6.00 |
| 6.00 to 7.00 | 5.00 to 6.00 | CS(=O)(=O)Nc1ccc(-c2cccc(OCC(O)CN3CCc4ccccc4C3)c2)cc1 (stereo unspecified) | 4.40 to 5.00 |
| > 7.00 | 6.00 to 7.00 | CS(=O)(=O)Nc1ccccc1OCC(=O)NCC(O)CN1CCc2ccccc2C1 (stereo unspecified) | 5.00 to 6.00 |
| 6.00 to 7.00 | 6.00 to 7.00 | Cn1cc2ccc(-c3cc(NCC(O)CN4CCc5ccccc5C4)ncn3)cc2n1 (stereo unspecified) | < 4.70 |
| > 7.00 | 6.00 to 7.00 | CC(=O)N(CC(O)CN1CCc2ccccc2C1)c1cccc(-c2ccc3ncn(C)c3c2)c1 (stereo unspecified) | 4.40 to 5.00 |
| > 7.00 | > 7.00 | O=C(COc1cccc(NC2CCOCC2)c1)NCC(O)CN1CCc2ccccc2C1 (stereo unspecified) | 5.00 to 6.00 |
| > 7.00 | 5.00 to 6.00 | OC(COc1cccc(-c2ccc3ncn(Cc4ccccc4)c3c2)c1)CN1CCc2ccccc2C1 (stereo unspecified) | 4.40 to 5.00 |
| > 7.00 | 6.00 to 7.00 | CN1CCC(n2cnc3ccc(-c4ccnc(NCC(O)CN5CCc6ccccc6C5)c4)cc32)C1 (stereo unspecified) | 5.00 to 6.00 |
| 5.00 to 6.00 | 6.00 to 7.00 | CC(=O)Nc1cccc(OCC(=O)NCC(O)CN2CCc3ccccc3C2)c1 (stereo unspecified) | 4.30 to 5.00 |
| 6.00 to 7.00 | 5.00 to 6.00 | CN1CCC(c2ccccc2OCC(=O)NCC(O)CN2CCc3ccccc3C2)CC1 (stereo unspecified) | < 4.70 |

| SMILES | pIC50 (PRMT5/MEP50 complex) | pEC50 [1] | pEC50 [2] |
| --- | --- | --- | --- |
| O=C(COc1ccc2cnn(C3CCNCC3)c2c1)NCC(O)CN1CCc2ccccc2C1 (stereo unspecified) | > 7.00 | 6.00 to 7.00 | < 4.70 |
